Values quoted from earlier work, collected in patent publication US10668050B2, “Compositions, methods and kits for treating diarrhea-predominant irritable bowel syndrome” (RedHill Biopharma Ltd., priority 2014, dated 2020).
Where a name gives a salt, the structure may show the parent alone.

Tests used:
[1] = scale of Pliska et al., J. Chromatog. 216, 79, 1981

Compound | solubility | hydropathy value (relative hydrophobic character) [1]
Cc1nccn1CC1CCc2c(c3ccccc3n2C)C1=O (racemic) [Ondansetron HCl dihydrate, Ondansetron hydrochloride] | soluble in water and normal saline | –
N[C@@H](CC(=O)O)C(=O)O [aspartic acid] | – | −2.15
NCC(=O)O [glycine] | – | 0
CC[C@H](C)[C@H](N)C(=O)O [iso-leucine] | – | 1.83
